Experiment [1] addresses T1, STE20-like serine/threonine-protein kinase (Homo sapiens, UniProt Q9H2G2). In words: Binding affinity to wild-type human partial length SLK (S14 to A307 residues) expressed in bacterial expression system assessed as residual binding level at 10 uM by Kinomescan method.
The target in experiment [2] is Epidermal growth factor receptor (Homo sapiens, UniProt P00533, L858R/T790M). In words: Inhibition of human N-terminal GST-tagged EGFR double T790M/L858R mutant (696 to 1022 residues) expressed in Sf21 insect cells by HTRF assay.
The test system of experiment [3] is Epidermal growth factor receptor (Homo sapiens), P00533 [L858R,T790M]. Briefly: Allosteric inhibition of human N-terminal GST-tagged EGFR double T790M/L858R mutant (696 to 1022 residues) expressed in Sf21 insect cells assessed as change in inhibition rate in presence of 1 to 1000 uM ATP by HTRF assay. Background: In TR-FRET formats the signal depends on donor and acceptor labels being close together.

In experiment [4] the target is Mast/stem cell growth factor receptor Kit (Homo sapiens, UniProt P10721, V559D/V654A). In words: Inhibition of recombinant human His-tagged KIT V559D/V654A double mutant expressed in baculovirus expression system at 10 uM by kinomescan assay.
Experiment [5] deals with Epidermal growth factor receptor (Homo sapiens, UniProt P00533, C797S/L858R/T790M). Briefly: Inhibition of human N-terminal GST-tagged EGFR triple T790M/L858R/C797S mutant (696 to 1022 residues) expressed in Sf21 insect cells by HTRF assay.
For experiment [6], the target named is Epidermal growth factor receptor (Homo sapiens, UniProt P00533, L858R). Briefly: Inhibition of human N-terminal GST-tagged EGFR L858R mutant (696 to 1022 residues) expressed in Sf21 insect cells by HTRF assay.
Experiment [7] addresses T1, STE20-like serine/threonine-protein kinase. Briefly: Inhibition of tracer 236 binding to recombinant full length human GST-tagged SLK expressed in baculovirus expression system measured after 60 mins by Lanthascreen assay relative to control.
In experiment [8] the target is Epidermal growth factor receptor (Homo sapiens, UniProt P00533). Briefly: Inhibition of human N-terminal GST-tagged EGFR (696 to 1022 residues) expressed in Sf21 insect cells by HTRF assay.

Calls of active or inactive are those of the source. No cut-off for these calls is given here.

Epidermal growth factor receptor (Homo sapiens, UniProt P00533, C797S/L858R/T790M), sequence (P00533 25-1210 T790M/C797S/L858R limits assumed): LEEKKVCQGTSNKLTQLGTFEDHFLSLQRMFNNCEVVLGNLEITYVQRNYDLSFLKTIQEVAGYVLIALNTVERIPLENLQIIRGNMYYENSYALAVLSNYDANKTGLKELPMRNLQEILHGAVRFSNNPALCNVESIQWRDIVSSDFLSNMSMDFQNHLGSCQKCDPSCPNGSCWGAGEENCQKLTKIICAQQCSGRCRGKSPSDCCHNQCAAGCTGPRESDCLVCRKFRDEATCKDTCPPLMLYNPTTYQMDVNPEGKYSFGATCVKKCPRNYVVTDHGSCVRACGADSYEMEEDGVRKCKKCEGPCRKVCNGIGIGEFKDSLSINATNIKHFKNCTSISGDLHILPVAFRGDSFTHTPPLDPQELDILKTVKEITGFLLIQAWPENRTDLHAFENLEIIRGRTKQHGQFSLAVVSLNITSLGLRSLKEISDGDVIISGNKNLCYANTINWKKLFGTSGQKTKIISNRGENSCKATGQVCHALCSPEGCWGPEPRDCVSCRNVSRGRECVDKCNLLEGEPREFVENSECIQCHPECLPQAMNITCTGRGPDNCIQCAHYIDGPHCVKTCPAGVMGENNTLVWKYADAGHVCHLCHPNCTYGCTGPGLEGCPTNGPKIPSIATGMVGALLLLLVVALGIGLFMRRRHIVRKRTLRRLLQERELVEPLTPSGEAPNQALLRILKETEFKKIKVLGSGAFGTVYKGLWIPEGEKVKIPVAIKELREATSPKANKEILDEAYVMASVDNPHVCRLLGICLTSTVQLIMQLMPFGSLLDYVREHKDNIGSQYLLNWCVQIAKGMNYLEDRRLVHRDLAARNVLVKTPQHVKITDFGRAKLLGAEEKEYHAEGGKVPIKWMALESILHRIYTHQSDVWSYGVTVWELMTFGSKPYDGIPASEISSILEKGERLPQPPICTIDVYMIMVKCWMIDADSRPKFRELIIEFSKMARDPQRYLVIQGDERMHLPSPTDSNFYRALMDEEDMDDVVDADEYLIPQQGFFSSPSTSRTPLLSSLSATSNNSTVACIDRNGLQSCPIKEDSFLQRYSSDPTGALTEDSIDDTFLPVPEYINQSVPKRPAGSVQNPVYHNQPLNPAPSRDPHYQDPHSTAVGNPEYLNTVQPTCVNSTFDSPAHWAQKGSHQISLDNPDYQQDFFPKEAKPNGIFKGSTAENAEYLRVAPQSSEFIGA
Epidermal growth factor receptor (Homo sapiens, UniProt P00533, L858R/T790M), sequence (P00533 25-1210 T790M/L858R limits assumed): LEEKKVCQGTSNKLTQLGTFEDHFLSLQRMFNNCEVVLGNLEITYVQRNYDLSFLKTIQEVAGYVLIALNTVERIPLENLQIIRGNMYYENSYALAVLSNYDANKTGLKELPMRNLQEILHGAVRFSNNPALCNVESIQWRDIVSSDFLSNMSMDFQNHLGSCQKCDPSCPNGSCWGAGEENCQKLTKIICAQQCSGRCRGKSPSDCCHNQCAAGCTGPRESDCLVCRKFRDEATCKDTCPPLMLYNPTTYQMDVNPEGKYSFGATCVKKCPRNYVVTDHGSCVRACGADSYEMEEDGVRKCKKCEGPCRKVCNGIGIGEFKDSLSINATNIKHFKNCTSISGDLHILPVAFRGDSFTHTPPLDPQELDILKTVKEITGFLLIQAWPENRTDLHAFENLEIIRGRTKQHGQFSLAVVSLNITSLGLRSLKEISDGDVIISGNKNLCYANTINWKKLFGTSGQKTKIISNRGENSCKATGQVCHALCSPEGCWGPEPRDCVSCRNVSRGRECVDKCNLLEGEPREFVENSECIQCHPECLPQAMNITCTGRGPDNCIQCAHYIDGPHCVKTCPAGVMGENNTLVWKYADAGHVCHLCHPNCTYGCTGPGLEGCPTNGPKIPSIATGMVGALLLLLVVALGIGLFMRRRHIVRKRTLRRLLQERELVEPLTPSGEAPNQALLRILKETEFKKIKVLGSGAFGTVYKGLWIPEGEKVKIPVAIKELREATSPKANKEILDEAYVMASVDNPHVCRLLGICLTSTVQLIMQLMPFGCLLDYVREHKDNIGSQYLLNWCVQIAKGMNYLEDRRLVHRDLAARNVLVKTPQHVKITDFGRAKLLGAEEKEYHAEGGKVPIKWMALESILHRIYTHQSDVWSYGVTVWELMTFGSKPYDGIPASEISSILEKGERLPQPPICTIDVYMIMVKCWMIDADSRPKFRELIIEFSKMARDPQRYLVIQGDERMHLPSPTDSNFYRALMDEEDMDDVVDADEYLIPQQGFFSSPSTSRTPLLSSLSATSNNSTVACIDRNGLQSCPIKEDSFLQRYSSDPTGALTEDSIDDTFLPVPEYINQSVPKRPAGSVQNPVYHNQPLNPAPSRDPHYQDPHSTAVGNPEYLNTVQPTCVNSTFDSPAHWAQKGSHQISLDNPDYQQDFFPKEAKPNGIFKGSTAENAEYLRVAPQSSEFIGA
T1 sequence (Q9H2G2 whole entry, the tested form may be a part): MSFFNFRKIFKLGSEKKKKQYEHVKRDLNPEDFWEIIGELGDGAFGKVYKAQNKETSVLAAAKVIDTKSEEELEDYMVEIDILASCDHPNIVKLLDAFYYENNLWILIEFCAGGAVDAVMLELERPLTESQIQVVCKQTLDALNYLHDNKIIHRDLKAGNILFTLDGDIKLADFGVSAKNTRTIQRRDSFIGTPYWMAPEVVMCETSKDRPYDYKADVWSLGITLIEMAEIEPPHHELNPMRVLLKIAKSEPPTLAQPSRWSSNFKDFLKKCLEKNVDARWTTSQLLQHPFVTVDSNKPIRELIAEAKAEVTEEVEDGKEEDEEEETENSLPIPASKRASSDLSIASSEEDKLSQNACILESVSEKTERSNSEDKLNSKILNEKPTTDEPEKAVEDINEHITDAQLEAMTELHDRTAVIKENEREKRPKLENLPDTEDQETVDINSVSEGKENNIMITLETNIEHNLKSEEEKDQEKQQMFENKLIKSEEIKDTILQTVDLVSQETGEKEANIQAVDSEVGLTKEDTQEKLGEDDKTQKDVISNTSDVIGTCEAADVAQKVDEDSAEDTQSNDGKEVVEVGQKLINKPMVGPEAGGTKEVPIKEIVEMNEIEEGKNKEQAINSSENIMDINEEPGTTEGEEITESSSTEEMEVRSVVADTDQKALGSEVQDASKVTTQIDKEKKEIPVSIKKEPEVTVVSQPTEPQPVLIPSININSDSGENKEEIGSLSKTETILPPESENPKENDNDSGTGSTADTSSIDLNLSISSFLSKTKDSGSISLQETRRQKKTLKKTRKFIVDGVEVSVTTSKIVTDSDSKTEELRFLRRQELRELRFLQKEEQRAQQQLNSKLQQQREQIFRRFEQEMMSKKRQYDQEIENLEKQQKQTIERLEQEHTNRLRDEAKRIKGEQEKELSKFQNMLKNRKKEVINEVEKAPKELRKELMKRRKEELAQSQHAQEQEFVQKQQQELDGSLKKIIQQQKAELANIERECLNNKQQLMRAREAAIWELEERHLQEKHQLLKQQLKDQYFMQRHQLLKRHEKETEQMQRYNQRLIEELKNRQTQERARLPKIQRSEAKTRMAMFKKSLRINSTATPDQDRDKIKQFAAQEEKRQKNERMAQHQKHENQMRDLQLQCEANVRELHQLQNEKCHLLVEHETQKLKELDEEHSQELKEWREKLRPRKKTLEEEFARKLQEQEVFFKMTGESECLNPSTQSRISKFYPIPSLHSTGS
Epidermal growth factor receptor (Homo sapiens, UniProt P00533), sequence (P00533 whole entry, the tested form may be a part): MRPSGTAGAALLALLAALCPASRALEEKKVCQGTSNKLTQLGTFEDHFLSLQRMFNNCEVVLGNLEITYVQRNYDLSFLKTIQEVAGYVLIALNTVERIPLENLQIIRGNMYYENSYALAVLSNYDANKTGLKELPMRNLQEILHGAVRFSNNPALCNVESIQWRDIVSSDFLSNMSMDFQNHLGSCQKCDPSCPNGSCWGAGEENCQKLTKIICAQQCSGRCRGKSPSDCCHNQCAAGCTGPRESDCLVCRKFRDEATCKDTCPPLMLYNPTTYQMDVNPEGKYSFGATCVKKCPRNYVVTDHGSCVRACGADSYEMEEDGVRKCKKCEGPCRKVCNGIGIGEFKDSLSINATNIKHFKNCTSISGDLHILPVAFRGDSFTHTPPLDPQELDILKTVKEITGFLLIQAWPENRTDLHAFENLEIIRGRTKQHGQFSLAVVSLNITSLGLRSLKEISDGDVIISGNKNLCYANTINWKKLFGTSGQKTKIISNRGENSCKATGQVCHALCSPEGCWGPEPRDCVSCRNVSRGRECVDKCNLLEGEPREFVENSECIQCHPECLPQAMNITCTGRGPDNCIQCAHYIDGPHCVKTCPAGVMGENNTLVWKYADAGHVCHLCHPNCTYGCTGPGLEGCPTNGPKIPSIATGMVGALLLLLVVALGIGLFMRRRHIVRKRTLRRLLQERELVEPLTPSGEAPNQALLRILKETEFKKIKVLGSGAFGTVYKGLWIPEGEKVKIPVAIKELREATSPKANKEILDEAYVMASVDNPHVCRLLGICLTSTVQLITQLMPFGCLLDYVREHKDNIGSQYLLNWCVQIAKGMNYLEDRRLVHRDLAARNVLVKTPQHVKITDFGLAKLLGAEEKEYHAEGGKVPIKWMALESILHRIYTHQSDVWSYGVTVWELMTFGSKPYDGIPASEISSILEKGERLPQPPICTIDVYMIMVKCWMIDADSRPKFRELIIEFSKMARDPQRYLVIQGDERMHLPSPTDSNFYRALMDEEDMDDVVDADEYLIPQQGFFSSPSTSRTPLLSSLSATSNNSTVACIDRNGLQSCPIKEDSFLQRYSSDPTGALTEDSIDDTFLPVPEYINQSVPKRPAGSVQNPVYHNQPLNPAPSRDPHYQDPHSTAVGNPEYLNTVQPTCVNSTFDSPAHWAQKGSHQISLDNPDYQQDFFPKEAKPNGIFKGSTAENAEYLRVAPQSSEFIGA

As a reminder, the Kd is a measure of binding affinity in units of concentration. In general, IC50 refers to the midpoint of a concentration-inhibition curve. For the compound `CN1CCN(c2ccc(Oc3ccc4c(c3)C(=O)N(Cc3ccccc3)c3cc(F)ccc3N4)cc2)CC1`, the Kd in experiment [1] and in experiment [4] was greater than 10000 nM throughout. The IC50 in experiment [2] is 11 nM; in experiment [5], 13 nM; in experiment [6], 154 nM; in experiment [7], greater than 10000 nM; in experiment [8], greater than 1000 nM. Also, the inhibition entry in experiment [3] is “inactive”.

With `O=C1c2cc(-c3ccc(N4CCNCC4)cc3)ccc2Nc2ccc(F)cc2N1Cc1ccccc1`, the half-inhibitory concentration (IC50) in experiment [2] was 31 nM; in experiment [5], 19 nM; in experiment [6] it was 150 nM; in experiment [8], greater than 1000 nM.

The values are drawn from ChEMBL document CHEMBL4406912, “Discovery and Optimization of Dibenzodiazepinones as Allosteric Mutant-Selective EGFR Inhibitors” (ACS Med Chem Lett, 2019).
